Test results: article PMC4760439, “Glicentin‐related pancreatic polypeptide inhibits glucose‐stimulated insulin secretion from the isolated pancreas of adult male rats” (Physiological Reports, 2015)
Entries after “also recorded” stand apart in the source; their conditions may differ. Positions of bridges follow the written chain, without caps; N, C: chain ends. No end group written: not given here.

Key:
[1] = molecular target: T1, human glucagon receptor (hGL‐R) (Homo sapiens, UniProt P47871); assay: cAMP stimulation in transfected Cos 7 cells, hGL‐R; type: cell-based; settings: preliminary experiment, hGL‐R with vector; data not shown
T1 construct: expressed in transfected cells; host or cells: Cos 7 cells
T1 sequence (P47871 26-477): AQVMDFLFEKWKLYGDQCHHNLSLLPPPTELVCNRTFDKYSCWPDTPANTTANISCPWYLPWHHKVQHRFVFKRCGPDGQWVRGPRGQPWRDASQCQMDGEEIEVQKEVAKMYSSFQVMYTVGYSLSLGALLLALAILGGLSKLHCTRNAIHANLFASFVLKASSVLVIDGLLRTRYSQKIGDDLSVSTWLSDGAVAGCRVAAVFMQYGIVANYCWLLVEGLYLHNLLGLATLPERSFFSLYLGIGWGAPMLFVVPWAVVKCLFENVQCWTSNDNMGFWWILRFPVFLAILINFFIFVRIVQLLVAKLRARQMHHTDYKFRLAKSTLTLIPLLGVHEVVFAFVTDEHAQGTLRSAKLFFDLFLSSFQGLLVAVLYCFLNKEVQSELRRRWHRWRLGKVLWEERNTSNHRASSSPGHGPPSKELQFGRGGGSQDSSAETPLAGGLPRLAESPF
Procedure: Transfection of Cos 7 cells
Cos 7 cells were maintained and subcultured as previously described (Bailey and Hay 2006) and plated at a density of 15,000 cells per well into 96‐well plates 1 day prior to transfection. […] Cyclic AMP assays were performed 48 h after transfection (Bailey and Hay 2006). The human GRPP was obtained from Bachem (Bubendorf, Switzerland).
(§1) Cyclic AMP stimulation of transfected Cos 7 cells
(§2) Transfected cells were serum‐deprived in DMEM containing 1 mmol L^−1 IBMX and 0.1% (w/v) bovine serum albumin (BSA) for 30 min. […] Plates were incubated at 37°C for 10 min. […] Media were then aspirated from the wells and reactions terminated by addition of ice‐cold absolute ethanol. Ethanol was then evaporated to dryness and cell extracts re‐suspended in 45 μL cAMP assay buffer: cAMP concentrations were determined using ALPHA‐screen assay kits (Perkin Elmer, Massachusetts) as previously described (Gingell et al. 2010).
Maximum pancreatic first‐phase insulin secretion in the presence of hormone infusion was contrasted with corresponding control values by unpaired Welch's t‐tests for preplanned comparisons, to allow for unequal variance between groups. Linear mixed‐effects models were fitted by restricted maximum likelihood (LME‐REML) to data obtained from each indicated phase of isolated perfused–organs studies, using S‐PLUS version 8.2 (TIBCO, Spotfire). Calculated P‐values <0.05 are presented in the article and reflect the likelihood ratio between two models, the effect in question (treatment, time, or treatment:time) against the model without the effect in question. Insulin secreted from isolated islets was expressed as a percentage of insulin content and compared using one‐way ANOVA (GraphPad Prism version 6.0: GraphPad Software Inc., San Diego, CA). […]

canine pancreas = settings: local circulation preparation of the canine pancreas; ref Ohneda and Ohneda 1988; cited from earlier work
Text: However, we know of only one study reporting the effects of GRPP on GSIS. […] The precise experimental conditions such as amount of glucose and experimental model used may have influences on the different outcomes; however, the reason for the opposing actions of GRPP between these ...

isolated rat islets = assay: Insulin secretion from isolated rat islets (static incubation); type: cell-based; settings: hGRPP 1, 10, and 100 nmol L^−1, 1 h, 8 to 9 incubations of 10 islets/well, three experiments, ELISA
Text: Maximum pancreatic first‐phase insulin secretion in the presence of hormone infusion was contrasted with corresponding control values by unpaired Welch's t‐tests for preplanned comparisons, to allow for unequal variance between groups. Linear mixed‐effects models were fitted by restricted maximum likelihood (LME‐REML) to data obtained from each indicated phase of isolated perfused–organs studies, using S‐PLUS version 8.2 (TIBCO, Spotfire). Calculated P‐values <0.05 are presented in the article and reflect the likelihood ratio between two models, the effect in question (treatment, time, or treatment:time) against the model without the effect in question. Insulin secreted from isolated islets was expressed as a percentage of insulin content and compared using one‐way ANOVA (GraphPad Prism version 6.0: GraphPad Software Inc., San Diego, CA). Cyclic AMP data have been normalized to the response obtained to forskolin and fitted to obtain concentration–response curves using a three‐parameter logistic equation (GraphPad Prism version 6.0: GraphPad Software Inc., San Diego, CA): pEC50 values were obtained from the concentration–response curves and compared using one‐way ANOVA. All data are presented as mean ± SEM of three to four independent experiments.

hGL‐R with RAMP2 = assay: cAMP stimulation in Cos 7 cells transfected with hGL‐R and RAMP2; type: cell-based, human; settings: preliminary experiment; data not shown
Procedure: as §1, §2

[2] = tested on: isolated‐perfused rat pancreas, perifused rat islets, and cultured islets; settings: ref Norfleet et al. 1975, Fujimoto 1981, Bolaffi et al. 1990; cited from earlier work
Text: (§3) GRPP and GRPP‐LP may inhibit insulin secretion indirectly, perhaps by influencing other islet‐derived hormones known to modulate hormone secretion from the β‐cell.

[3] = tested on: plasma insulin and glucagon; settings: infusion in humans; ref Skamene and Patel 1984; cited from earlier work
Text: as §3

pancreatic β‐cell = settings: ref Metz et al. 1983; Zielmann et al. 1985; Holst et al. 1987; Shima et al. 1988; Goke et al. 1989; Ishizuka et al. 1991; Jia et al. 1995; Vahl et al. 2003; cited from earlier work

RSLQDTEEKSRSFSASQADPLSDPDQMNED [hGRPP, human glicentin‐related pancreatic polypeptide, The human GRPP was obtained from Bachem]
Stimulation of cAMP production at hGL‐R alone [1]: did not stimulate cAMP production at hGL‐R alone | Plasma insulin and glucagon, canine pancreas (canine pancreas): slight increases in plasma insulin and decreases in plasma glucagon | Basal insulin secretion from islets (vs control) (isolated rat islets; 2.8 mmol L^−1 glucose): did not affect insulin secretion; also recorded: did not affect basal or stimulated insulin compared with untreated islets | Glucose‐stimulated insulin secretion from islets (vs control) (isolated rat islets; 16.7 mmol L^−1 glucose): did not affect insulin secretion; also recorded: did not affect basal or stimulated insulin compared with untreated islets | Stimulation of cAMP production at hGL‐R in the presence of RAMP2 (hGL‐R with RAMP2): did not stimulate cAMP production at hGL‐R alone or in the presence of RAMP2

somatostatin (AGCKNFFWKTFTSC; disulfide 3-14; ends not checked; UniProt P61278 103-116, looked up) [SST]
GSIS and arginine‐stimulated glucagon secretion [2]: inhibits GSIS as well as arginine‐stimulated glucagon secretion | Arginine‐stimulated plasma insulin and glucagon levels [3]: decreased arginine‐stimulated plasma insulin and glucagon levels in a dose‐dependent manner

glucagon‐like peptide 1 (HAEGTFTSDVSSYLEGQAAKEFIAWLVKGR; ends and bridges not checked; UniProt P01275 98-127, looked up) [GLP‐1, incretin; literature statement, form not specified]
GSIS (action on pancreatic β‐cell) (pancreatic β‐cell): enhance glucose‐stimulated insulin secretion
